These results are taken from publication PMC6155272, “Chroman-4-One Derivatives Targeting Pteridine Reductase 1 and Showing Anti-Parasitic Activity” (Molecules : A Journal of Synthetic Chemistry and Natural …, 2017).

The test system of data set [1] is T. brucei bloodstream forms. Description: Activity against T. brucei bloodstream forms (resazurin-based assay). In kind it is cell-based, Trypanosoma brucei. The note with it: for EC50 / inhibition at 10 µM: bloodstream form; for EC50: dose response; for inhibition at 10 µM: read-out: % inh. T. brucei (10 μM); for selectivity index (SI): ratio between CC50 toward THP-1 and EC50 toward T. brucei. How it is done: The efficacy of compounds against T. brucei bloodstream forms was evaluated using a modified resazurin-based assay previously described in literature.
(In general: The colour change of resazurin is a common sign of viable cells or microbes.)

Data set [2] relates to L. infantum (MHOM/BR/1972/BH46) intracellular amastigotes. Description: Activity against L. infantum intramacrophage amastigotes (high-content imaging). The format is cell-based, Leishmania infantum. The note with it: 50 μM, amastigotes; for inhibition at 50 µM: Leishmania infantum, read-out: % inh. L. infantum (50 μM). How it is done: […] THP-1 cells were plated onto 384-well plates in Roswell Park Memorial Institute (RPMI) 1640 medium, Hyclone, GE Healthcare Life Sciences (Issaquah, WA, USA) containing 50 ng/mL phorbol 12-myristate 13-acetate (PMA, Sigma-Aldrich, Saint Louis, MS, USA), and incubated for 48 h. Then, 6 day-old promastigotes were added, at a ratio of 50 parasites per each THP-1 cell seeded earlier. After 24 h of infection, negative controls (0.5% DMSO), positive controls (10 μM amphotericin B) or compounds were added to the plate. Assay plates were incubated for 48 h, and then fixed with 4% paraformaldehyde and stained with Draq 5. The Operetta high-content automated imaging system was used to acquire images and the Harmony Software was optimized to quantify the host cell number, the infection ratio and the number of parasites per infected cell. The ratio between infected cells and total number of cells is then calculated, and defined as the Infection Ratio (IR). The raw data for IR values was normalized to negative—DMSO (mock)-treated infected cells—and positive (non-infected cells) controls to determine the normalized antiparasitic activity.

The nature of data set [3]: Cytotoxicity against THP-1 macrophages (MTT). The format is cell-based. The note with it: human, THP-1-derived macrophages; THP-1 macrophage-like cells; NOAEL = no observed adverse effect level; read-out: CC50 ± SD or NOAEL. How it is done: The effect of compounds 1–3 on THP-1-derived macrophages was assessed by the colorimetric (MTT) assay (3-(4,5-dimethylthiazol-2-yl)-2,5-diphenyl tetrazolium bromide).

Data set [4] deals with A549 cells. Description: Cytotoxicity assay against A549 cells (CellTiter-Glo). The format is cell-based. The note with it: 100% = not cytotoxic, 0% = cytostatic. The method, then:
(§1) The assays were performed using the CellTiter-Glo assay from Promega (Madison, AL, USA). The assay detects cellular adenosine triphosphate (ATP) content with the amount of ATP being directly proportional to the number of cells present. The A549 cells were obtained from DSMZ (German Collection of Microorganisms and Cell Cultures, Braunschweig, Germany) and W1-38 cells were obtained from ATCC (ATCC® CCL-75™) and were grown in Dulbecco's Modified Eagle Medium (DMEM) from Capricorn Scientific GmbH, Ebsdorfergrund, Germany with fetal bovine serum (FBS) (10% v/v) from Capricorn Scientific GmbH, Ebsdorfergrund, Germany, streptomycin (100 μg/mL) and penicillin G (100 U/mL).

Data set [5] has as its system W1-38 cells. Nature of the data set: Cytotoxicity assay against W1-38 cells (CellTiter-Glo). In kind it is cell-based. The note with it: 100% = not cytotoxic, 0% = cytostatic. How it is done:
as §1

In data set [6] the test system is 786-O (renal carcinoma) cell line. Description: Mitochondrial toxicity (MitoTracker Red CMXRos uptake, high content imaging). In kind it is cell-based. On the set-up: key to % Mitochondrial toxicity: NI: no inhibition. The note with it: for % Mitochondrial toxicity: 10 µM, 100% = mitotoxic, 0% = not mitotoxic; for IC50: Homo sapiens, 786-0, read-out: IC50 Mitochondria. How it is done: This made use of MitoTracker® Red chloromethyl-X-rosamine (CMXRos) uptake and High Content Imaging to monitor compound mediated mitochondrial toxicity in the 786-O (renal carcinoma) cell line. Cells were maintained using Roswell Park Memorial Institute-1640 (RPMI-1640) medium from Capricorn Scientific GmbH, Ebsdorfergrund, Germany containing 2 mM glutamine, FBS (10% v/v), streptomycin (100 μg/mL) and penicillin G (100 U/mL).

Data set [7] addresses T1, Aurora B kinase (Homo sapiens, UniProt Q96GD4).
T1 construct: purchased Promega
Description: Aurora B kinase assay (ADP-Glo). In kind it is biochemical. The source says: This assay made use of the ADP-Glo Kinase Enzyme System from Promega (Madison, AL, USA), which is a bioluminescent assay that employs firefly luciferase in a coupled-enzyme assay format to enable detection of adenosine diphosphate (ADP) levels from ATPase assays.

Data set [8] addresses T2, hERG channel (Homo sapiens, UniProt Q12809).
T2 construct: purchased Invitrogen
Nature of the data set: hERG fluorescence polarisation assay (Predictor). The note with it: for inhibition at 10 µM: human. The format is binding. The source says: The assay made use of Invitrogen’s Predictor™ hERG Fluorescence Polarisation Assay. This uses a membrane fraction containing hERG channel (Predictor™ hERG Membrane) and a high-affinity red fluorescent hERG channel ligand, or “tracer” (Predictor™ hERG Tracer Red), whose displacement by test compounds can be determined in a homogenous, Fluorescence Polarisation (FP)-based format.

The target of data set [9] is T3, CYP1A2 (Homo sapiens, UniProt P05177).
T3 construct: purchased Promega; host or cells: baculovirus-infected insect cells
T3 sequence (P05177 1-516): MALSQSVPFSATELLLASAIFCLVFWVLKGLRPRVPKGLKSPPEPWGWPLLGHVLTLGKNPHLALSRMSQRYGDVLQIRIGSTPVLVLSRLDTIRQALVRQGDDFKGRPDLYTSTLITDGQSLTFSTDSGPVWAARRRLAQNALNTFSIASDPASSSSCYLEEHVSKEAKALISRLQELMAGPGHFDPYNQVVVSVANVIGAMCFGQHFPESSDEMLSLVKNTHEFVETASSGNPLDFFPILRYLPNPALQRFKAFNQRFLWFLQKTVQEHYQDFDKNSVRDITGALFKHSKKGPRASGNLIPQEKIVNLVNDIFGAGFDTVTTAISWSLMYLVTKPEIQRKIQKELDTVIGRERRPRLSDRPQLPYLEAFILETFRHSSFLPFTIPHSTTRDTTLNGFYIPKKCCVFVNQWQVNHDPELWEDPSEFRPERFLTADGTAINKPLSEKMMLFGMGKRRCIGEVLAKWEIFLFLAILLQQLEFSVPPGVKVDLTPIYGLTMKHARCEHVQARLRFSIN
Nature of the data set: Cytochrome P450 1A2 assay (P450-Glo). The format is in vitro ADME. The note with it: for inhibition at 10 µM: human. The source says: (§2) These assays made use of the PromegaP450-Glo™ (Madison, AL, USA) assay platform. Each CYP450 assay includes microsomal preparations of cytochromes from baculovirus-infected insect cells.

For data set [10], the target named is T4, CYP2C9 (Homo sapiens, UniProt P11712).
T4 construct: purchased Promega; host or cells: baculovirus-infected insect cells
T4 sequence (P11712 whole entry): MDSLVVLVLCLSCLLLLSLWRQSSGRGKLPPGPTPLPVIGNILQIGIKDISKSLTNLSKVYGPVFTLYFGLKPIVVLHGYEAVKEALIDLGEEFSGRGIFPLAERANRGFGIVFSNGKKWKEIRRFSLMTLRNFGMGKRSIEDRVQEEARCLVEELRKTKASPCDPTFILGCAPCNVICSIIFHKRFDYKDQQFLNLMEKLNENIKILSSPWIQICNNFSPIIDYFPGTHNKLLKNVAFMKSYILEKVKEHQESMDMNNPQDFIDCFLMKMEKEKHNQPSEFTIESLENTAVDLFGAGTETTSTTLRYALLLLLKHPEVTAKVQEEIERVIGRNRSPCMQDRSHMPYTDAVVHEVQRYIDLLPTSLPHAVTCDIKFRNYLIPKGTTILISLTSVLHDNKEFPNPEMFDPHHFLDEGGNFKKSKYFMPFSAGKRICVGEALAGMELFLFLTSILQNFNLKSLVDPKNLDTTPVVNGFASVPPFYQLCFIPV
Description: Cytochrome P450 2C9 assay (P450-Glo). The note with it: for inhibition at 10 µM: human. The format is in vitro ADME.
From the text: as §2

Data set [11] has as its target T5, CYP2C19 (Homo sapiens, UniProt P33261).
T5 construct: purchased Promega; host or cells: baculovirus-infected insect cells
Description: Cytochrome P450 2C19 assay (P450-Glo). The format is in vitro ADME. The note with it: for inhibition at 10 µM: human.
From the text: as §2

Data set [12] has as its target T6, CYP3A4 (Homo sapiens, UniProt P08684).
T6 construct: purchased Promega; host or cells: baculovirus-infected insect cells
Nature of the data set: Cytochrome P450 3A4 assay (P450-Glo). In kind it is in vitro ADME. The note with it: for inhibition at 10 µM: human.
From the text: as §2

T2 sequence (Q12809 whole entry): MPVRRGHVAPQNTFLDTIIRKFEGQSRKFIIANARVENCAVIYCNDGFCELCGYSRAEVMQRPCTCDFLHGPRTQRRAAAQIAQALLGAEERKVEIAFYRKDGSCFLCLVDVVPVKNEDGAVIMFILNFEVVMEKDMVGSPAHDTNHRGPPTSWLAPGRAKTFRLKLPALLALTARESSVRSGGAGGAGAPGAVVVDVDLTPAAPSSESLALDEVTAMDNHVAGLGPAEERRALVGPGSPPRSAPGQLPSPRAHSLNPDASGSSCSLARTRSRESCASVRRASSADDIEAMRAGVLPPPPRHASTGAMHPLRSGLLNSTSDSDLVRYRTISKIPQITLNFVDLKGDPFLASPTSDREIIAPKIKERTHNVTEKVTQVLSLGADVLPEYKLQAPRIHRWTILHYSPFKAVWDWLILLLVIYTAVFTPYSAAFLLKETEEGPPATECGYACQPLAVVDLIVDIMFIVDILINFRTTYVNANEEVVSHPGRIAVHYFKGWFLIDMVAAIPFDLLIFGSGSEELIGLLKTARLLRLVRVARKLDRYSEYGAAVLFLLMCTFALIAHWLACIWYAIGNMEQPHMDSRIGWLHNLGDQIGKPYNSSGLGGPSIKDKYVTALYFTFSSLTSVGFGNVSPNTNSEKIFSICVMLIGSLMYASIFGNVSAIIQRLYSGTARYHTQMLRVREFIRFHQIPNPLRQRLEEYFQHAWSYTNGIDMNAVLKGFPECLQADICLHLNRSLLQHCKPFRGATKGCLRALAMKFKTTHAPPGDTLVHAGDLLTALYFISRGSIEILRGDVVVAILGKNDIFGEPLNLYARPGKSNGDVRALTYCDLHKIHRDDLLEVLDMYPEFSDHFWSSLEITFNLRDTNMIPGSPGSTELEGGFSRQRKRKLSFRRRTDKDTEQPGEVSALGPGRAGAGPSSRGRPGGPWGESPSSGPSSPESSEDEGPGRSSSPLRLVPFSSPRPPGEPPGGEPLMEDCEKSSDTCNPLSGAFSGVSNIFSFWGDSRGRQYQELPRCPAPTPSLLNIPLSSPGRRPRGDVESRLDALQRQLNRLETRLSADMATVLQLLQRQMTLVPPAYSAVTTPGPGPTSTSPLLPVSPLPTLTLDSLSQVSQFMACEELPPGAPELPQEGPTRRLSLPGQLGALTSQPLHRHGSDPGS
T6 sequence (P08684 whole entry): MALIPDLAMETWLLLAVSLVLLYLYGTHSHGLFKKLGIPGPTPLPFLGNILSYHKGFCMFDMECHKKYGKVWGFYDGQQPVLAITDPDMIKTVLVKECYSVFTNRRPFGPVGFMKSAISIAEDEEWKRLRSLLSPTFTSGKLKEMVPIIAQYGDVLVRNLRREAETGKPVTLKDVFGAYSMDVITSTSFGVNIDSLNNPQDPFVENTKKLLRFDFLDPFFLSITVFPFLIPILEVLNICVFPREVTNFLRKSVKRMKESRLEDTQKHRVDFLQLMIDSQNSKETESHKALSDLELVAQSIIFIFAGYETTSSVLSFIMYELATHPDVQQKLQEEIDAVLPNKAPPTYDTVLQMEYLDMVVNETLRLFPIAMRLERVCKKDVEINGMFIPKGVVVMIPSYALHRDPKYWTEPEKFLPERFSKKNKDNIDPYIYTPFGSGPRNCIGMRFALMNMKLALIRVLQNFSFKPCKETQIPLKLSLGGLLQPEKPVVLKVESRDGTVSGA
T5 sequence (P33261 whole entry): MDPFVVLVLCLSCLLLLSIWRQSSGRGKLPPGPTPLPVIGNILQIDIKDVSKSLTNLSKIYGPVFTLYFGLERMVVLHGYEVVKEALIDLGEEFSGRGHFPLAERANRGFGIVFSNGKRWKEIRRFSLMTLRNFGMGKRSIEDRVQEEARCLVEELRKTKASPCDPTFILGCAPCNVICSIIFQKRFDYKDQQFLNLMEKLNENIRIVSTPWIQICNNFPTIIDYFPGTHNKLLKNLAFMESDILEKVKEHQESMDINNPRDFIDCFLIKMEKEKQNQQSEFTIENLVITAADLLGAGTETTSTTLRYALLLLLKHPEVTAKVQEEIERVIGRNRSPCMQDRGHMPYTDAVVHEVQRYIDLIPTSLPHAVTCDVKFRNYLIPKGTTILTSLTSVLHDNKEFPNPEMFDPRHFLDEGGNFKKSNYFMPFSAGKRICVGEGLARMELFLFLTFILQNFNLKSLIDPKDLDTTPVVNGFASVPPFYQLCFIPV
T1 sequence (Q96GD4 whole entry): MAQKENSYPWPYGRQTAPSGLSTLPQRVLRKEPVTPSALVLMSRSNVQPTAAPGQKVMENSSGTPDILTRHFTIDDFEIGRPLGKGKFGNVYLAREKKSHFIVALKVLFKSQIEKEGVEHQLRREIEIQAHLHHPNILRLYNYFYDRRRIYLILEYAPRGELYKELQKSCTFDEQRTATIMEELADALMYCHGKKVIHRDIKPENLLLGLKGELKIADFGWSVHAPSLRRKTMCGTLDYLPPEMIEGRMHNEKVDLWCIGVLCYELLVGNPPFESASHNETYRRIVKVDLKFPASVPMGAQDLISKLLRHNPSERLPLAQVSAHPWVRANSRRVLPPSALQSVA

The term EC50 denotes the concentration giving half of the maximal effect. The CC50 is the concentration giving 50% cytotoxicity. One may read the IC50 as the concentration at which inhibition is half-maximal. Take `O=C1CC(c2cccc(O)c2)Oc2ccc(O)cc21` (stereo not drawn) [Compound 1]: the EC50 in data set [1] (Trypanosoma brucei) was 12.6 ± 1.69 µM; in [1], 12.6 ± 1.7 µM. The inhibition at 10 µM in [1] (Trypanosoma brucei) was 44%; in data set [7], less than 15%; in data set [8], 7%; in [9] it was 3%; in data set [10] it was less than 15%; in data set [11], 77.2%. The compound also registered an inhibition at 10 µM in data set [12] of less than 15%. Also, the “selectivity index (SI)” value in data set [1] is “greater than 7”. Moreover, in data set [2], the inhibition at 50 µM is 31%. In data set [3], the CC50 was greater than 100 µM. Besides, the “% Cell growth A549 (10 μM)” value in [4] is 137%. The “% Cell growth W1-38 (10 μM)” value in data set [5] was found to be 108%. Moreover, the “% Mitochondrial toxicity” value in data set [6] turned out to be 6%. Moreover, the IC50 in data set [6] was greater than 100 µM; in [8], greater than 100 µM; in data set [9], 29 µM; in data set [10], 72 µM; in data set [11], 1 µM; in data set [12] it was 80 µM.

As to `O=C1CC(c2ccc(O)cc2)Oc2ccc(O)cc21` (stereo not drawn) [Compound 2], the EC50 in data set [1] (Trypanosoma brucei) came out at 13 ± 1.82 µM; in [1], 13 ± 1.8 µM. In addition, the inhibition at 10 µM in [1] (Trypanosoma brucei) was 49%; in [7], less than 15%; in [8] it was 14%; in [9], less than 15%; in data set [10] it was less than 15%; in [11] it was 44.5%. The same compound registered an inhibition at 10 µM in [12] of less than 15%. The “selectivity index (SI)” value in [1] is given as “higher than 7”. Also, in data set [2], the inhibition at 50 µM stood at 29%. The CC50 in [3] is greater than 100 µM. The “% Cell growth A549 (10 μM)” value in data set [4] is 105%. In data set [5], the “% Cell growth W1-38 (10 μM)” value is given as 91%. Moreover, in data set [6], the “% Mitochondrial toxicity” value is listed as “NI”. Also, the IC50 was greater than 100 µM in data set [6]; greater than 100 µM in data set [8]; 59 µM in [9]; greater than 100 µM in data set [10]; 4 µM in [11]; greater than 100 µM in data set [12].

On to `O=C1CC(c2ccc(O)c(O)c2)Oc2ccc(O)cc21` (stereo not drawn) [Compound 3], for which the EC50 in [1] (Trypanosoma brucei) and in data set [1] was 34.8 ± 1.1 µM throughout. Moreover, the inhibition at 10 µM in data set [1] (Trypanosoma brucei) was 14%; in data set [7] it was less than 15%; in data set [8] it was 20%; in data set [9], less than 15%; in data set [10], less than 15%; in [11], 2.68%. The same compound displayed an inhibition at 10 µM in data set [12] of less than 15%. In [2], the “% inh. L. infantum (50 μM)” value is “inactive”. Also, in [2], the inhibition at 50 µM worked out at 3%. Besides, the CC50 in data set [3] is greater than 100 µM. In addition, the “% Cell growth A549 (10 μM)” value in data set [4] is listed as 124%. Besides, the “% Cell growth W1-38 (10 μM)” value in data set [5] was found to be 86%. The “% Mitochondrial toxicity” value in [6] is given as “NI”. Also, the IC50 is greater than 100 µM in data set [6]; 64 µM in [8]; 62 µM in data set [9]; 4 µM in [10]; 5 µM in data set [11]; 65 µM in data set [12].
